Source: patent US10004701B2, “Methods and compositions for treating infection” (UNIVERSITY OF ROCHESTER, priority 2012, dated 2018)
Structures can show the parent of a compound that is named as a salt. Where two headings read alike, the source gives them in different places.

Tests used:
Test in all cases: AK assay 384-well format, Prestwick library screening
[1] = tested on: A. baumannii strain 98-37-09; assay type: cell-based, Acinetobacter baumannii; details: 50 μM final drug concentration; for fold induction at 50 µM: Acinetobacter baumannii, 983709, 3 h
[2] = tested on: E. cloacae; assay type: cell-based, Enterobacter cloacae; details: 50 μM final drug concentration; for fold induction at 50 µM: Enterobacter cloacae, 3 h
[3] = tested on: P. aeruginosa; assay type: cell-based, Pseudomonas aeruginosa; details: 50 μM final drug concentration; for fold induction at 50 µM: Pseudomonas aeruginosa, 3 h
[4] = tested on: E. coli; assay type: cell-based, Escherichia coli; details: 50 μM final drug concentration; for fold induction at 50 µM: Escherichia coli, 3 h
[5] = tested on: E. faecium; assay type: cell-based, Enterococcus faecium; details: 50 μM final drug concentration; for fold induction at 50 µM: Enterococcus faecium, 3 h
[6] = tested on: S. aureus strain USA300-0114; assay type: cell-based, Staphylococcus aureus; details: 50 μM final drug concentration; for fold induction at 50 µM: Staphylococcus aureus, USA300, 3 h
[7] = tested on: K. pneumoniae; assay type: cell-based, Klebsiella pneumoniae; details: 50 μM final drug concentration; for fold induction at 50 µM: Klebsiella pneumoniae, 3 h
[8] = planktonic, […], read-out: AK-based Prestwick Library Screening Results, A. baumannii (fold increase in extracellular AK activity)
[9] = planktonic, […], read-out: AK-based Prestwick Library Screening Results, E. cloacae (fold increase in extracellular AK activity)
[10] = planktonic, […], read-out: AK-based Prestwick Library Screening Results, P. aeruginosa (fold increase in extracellular AK activity)
[11] = planktonic, […], read-out: AK-based Prestwick Library Screening Results, E. coli (fold increase in extracellular AK activity)
[12] = planktonic, […], read-out: AK-based Prestwick Library Screening Results, E. faecium (fold increase in extracellular AK activity)
[13] = planktonic, […], read-out: AK-based Prestwick Library Screening Results, S. aureus (fold increase in extracellular AK activity)
[14] = planktonic, […], read-out: AK-based Prestwick Library Screening Results, K. pneumoniae (fold increase in extracellular AK activity)
[15] = planktonic, cutoff for positive 3-fold increase
[16] = planktonic, cutoff for positive-scoring molecules 3-fold increase
[17] = planktonic A. baumannii, 384-well, cutoff for positive-scoring molecules 3-fold increase, read-out: AK-based Prestwick Library Screening Results: A. baumannii (increase in extracellular AK activity)
[18] = planktonic E. cloacae, 384-well, cutoff for positive-scoring molecules 3-fold increase, read-out: AK-based Prestwick Library Screening Results: E. cloacae (increase in extracellular AK activity)
[19] = planktonic P. aeruginosa, 384-well, cutoff for positive-scoring molecules 3-fold increase, read-out: AK-based Prestwick Library Screening Results: P. aeruginosa (increase in extracellular AK activity)
[20] = planktonic E. coli, 384-well, cutoff for positive-scoring molecules 3-fold increase, read-out: AK-based Prestwick Library Screening Results: E. coli (increase in extracellular AK activity)
[21] = planktonic E. faecium, 384-well, cutoff for positive-scoring molecules 3-fold increase, read-out: AK-based Prestwick Library Screening Results: E. faecium (increase in extracellular AK activity)
[22] = planktonic S. aureus, 384-well, cutoff for positive-scoring molecules 3-fold increase, read-out: AK-based Prestwick Library Screening Results: S. aureus (increase in extracellular AK activity)
[23] = planktonic K. pneumoniae, 384-well, cutoff for positive-scoring molecules 3-fold increase, read-out: AK-based Prestwick Library Screening Results: K. pneumoniae (increase in extracellular AK activity)
[24] = cutoff for positive-scoring molecules 3-fold increase, read-out: AK-based Prestwick Library Screening Results, A. baumannii (fold increase in extracellular AK activity)
[25] = cutoff for positive-scoring molecules 3-fold increase, read-out: AK-based Prestwick Library Screening Results, E. cloacae (fold increase in extracellular AK activity)
[26] = cutoff for positive-scoring molecules 3-fold increase, read-out: AK-based Prestwick Library Screening Results, P. aeruginosa (fold increase in extracellular AK activity)
[27] = cutoff for positive-scoring molecules 3-fold increase, read-out: AK-based Prestwick Library Screening Results, E. coli (fold increase in extracellular AK activity)
[28] = cutoff for positive-scoring molecules 3-fold increase, read-out: AK-based Prestwick Library Screening Results, E. faecium (fold increase in extracellular AK activity)
[29] = cutoff for positive-scoring molecules 3-fold increase, read-out: AK-based Prestwick Library Screening Results, S. aureus (fold increase in extracellular AK activity)
[30] = cutoff for positive-scoring molecules 3-fold increase, read-out: AK-based Prestwick Library Screening Results, K. pneumoniae (fold increase in extracellular AK activity)
[31] = cutoff for positive-scoring molecules 3-fold increase

CN(C)C(=O)Oc1cccc([N+](C)(C)C)c1 [Neostigmine bromide]
fold induction at 50 µM [1, 8]: 1.3
fold induction at 50 µM [2, 9]: 1.2
fold induction at 50 µM [3, 10]: 1.1
fold induction at 50 µM [4, 11]: 1.3
fold induction at 50 µM [5, 12]: 1
fold induction at 50 µM [6, 13]: 1.2
fold induction at 50 µM [7, 14]: 1

O=C(O)[C@H](O)[C@@H](O)[C@H](O[C@@H]1O[C@H](CO)[C@H](O)[C@H](O)[C@H]1O)[C@H](O)CO [Lactobionic acid]
AK-based Prestwick Library Screening Results, A. baumannii (fold increase in extracellular AK activity) [1, 15]: 1.1
AK-based Prestwick Library Screening Results, E. cloacae (fold increase in extracellular AK activity) [2, 15]: 1.2
AK-based Prestwick Library Screening Results, P. aeruginosa (fold increase in extracellular AK activity) [3, 15]: 1.0
AK-based Prestwick Library Screening Results, E. coli (fold increase in extracellular AK activity) [4, 15]: 1.0
AK-based Prestwick Library Screening Results, E. faecium (fold increase in extracellular AK activity) [5, 15]: 1.0
AK-based Prestwick Library Screening Results, S. aureus (fold increase in extracellular AK activity) [6, 15]: 0.8
AK-based Prestwick Library Screening Results, K. pneumoniae (fold increase in extracellular AK activity) [7, 15]: 0.9

COCCc1ccc(OCC(O)CNC(C)C)cc1.COCCc1ccc(OCC(O)CNC(C)C)cc1.O=C(O)C(O)C(O)C(=O)O (racemic) [Metoprolol-(+,−) (+)-tartrate salt]
AK-based Prestwick Library Screening Results, A. baumannii (fold increase in extracellular AK activity) [1, 16]: 0.7
AK-based Prestwick Library Screening Results, E. cloacae (fold increase in extracellular AK activity) [2, 16]: 7.0
AK-based Prestwick Library Screening Results, P. aeruginosa (fold increase in extracellular AK activity) [3, 16]: 0.7
AK-based Prestwick Library Screening Results, E. coli (fold increase in extracellular AK activity) [4, 16]: 0.6
AK-based Prestwick Library Screening Results, E. faecium (fold increase in extracellular AK activity) [5, 16]: 0.9
AK-based Prestwick Library Screening Results, S. aureus (fold increase in extracellular AK activity) [6, 16]: 0.6
AK-based Prestwick Library Screening Results, K. pneumoniae (fold increase in extracellular AK activity) [7, 16]: 0.5

C=C1[C@@H]2CC[C@H]3[C@]4(C)C[C@H](O[C@@H]5O[C@H](CO)[C@@H](OS(=O)(=O)O)[C@H](OS(=O)(=O)O)[C@H]5OC(=O)CC(C)C)C[C@@H](C(=O)O)[C@H]4CC[C@]3(C2)[C@@H]1O [Atractyloside potassium salt]
fold induction at 50 µM [1, 8]: 0.8
fold induction at 50 µM [2, 9]: 0.8
fold induction at 50 µM [3, 10]: 0.6
fold induction at 50 µM [4, 11]: 0.7
fold induction at 50 µM [5, 12]: 0.9
fold induction at 50 µM [6, 13]: 0.7
fold induction at 50 µM [7, 14]: 0.6

CN(C)CCCOc1nn(Cc2ccccc2)c2ccccc12 [Benzydamine hydrochloride]
fold induction at 50 µM [1, 17]: 1
fold induction at 50 µM [2, 18]: 1.2
fold induction at 50 µM [3, 19]: 1.2
fold induction at 50 µM [4, 20]: 1.3
fold induction at 50 µM [5, 21]: 1.1
fold induction at 50 µM [6, 22]: 1.1
fold induction at 50 µM [7, 23]: 1

CCn1cc(C(=O)O)c(=O)c2cc3c(cc21)OCO3 [Oxolinic acid]
fold induction at 50 µM ([1]; 384-well format, cutoff for positive-scoring molecules 3-fold increase, read-out: AK-based Prestwick Library Screening Results, A. baumannii (increase in extracellular AK activity)): 2.3
fold induction at 50 µM ([2]; 384-well format, cutoff for positive-scoring molecules 3-fold increase, read-out: AK-based Prestwick Library Screening Results, E. cloacae (increase in extracellular AK activity)): 4.3
fold induction at 50 µM ([3]; 384-well format, cutoff for positive-scoring molecules 3-fold increase, read-out: AK-based Prestwick Library Screening Results, P. aeruginosa (increase in extracellular AK activity)): 1
fold induction at 50 µM ([4]; 384-well format, cutoff for positive-scoring molecules 3-fold increase, read-out: AK-based Prestwick Library Screening Results, E. coli (increase in extracellular AK activity)): 13.1
fold induction at 50 µM ([5]; 384-well format, cutoff for positive-scoring molecules 3-fold increase, read-out: AK-based Prestwick Library Screening Results, E. faecium (increase in extracellular AK activity)): 1.1
fold induction at 50 µM ([6]; 384-well format, cutoff for positive-scoring molecules 3-fold increase, read-out: AK-based Prestwick Library Screening Results, S. aureus (increase in extracellular AK activity)): 1
fold induction at 50 µM ([7]; 384-well format, cutoff for positive-scoring molecules 3-fold increase, read-out: AK-based Prestwick Library Screening Results, K. pneumoniae (increase in extracellular AK activity)): 1.6

CCN(CC)CCNC(=O)c1cc(Br)c(N)cc1OC [Bromopride]
fold induction at 50 µM [1, 24]: 1.3
fold induction at 50 µM [2, 25]: 1.3
fold induction at 50 µM [3, 26]: 1.1
fold induction at 50 µM [4, 27]: 1.3
fold induction at 50 µM [5, 28]: 0.9
fold induction at 50 µM [6, 29]: 1.3
fold induction at 50 µM [7, 30]: 1

C#C[C@]1(O)CC[C@H]2[C@@H]3CCc4cc(OC)ccc4[C@H]3CC[C@@]21C [Ethynylestradiol 3-methyl ether]
AK-based Prestwick Library Screening Results, A. baumannii (fold increase in extracellular AK activity) [1, 31]: 1.1
AK-based Prestwick Library Screening Results, E. cloacae (fold increase in extracellular AK activity) [2, 31]: 1.5
AK-based Prestwick Library Screening Results, P. aeruginosa (fold increase in extracellular AK activity) [3, 31]: 1.1
AK-based Prestwick Library Screening Results, E. coli (fold increase in extracellular AK activity) [4, 31]: 1.2
AK-based Prestwick Library Screening Results, E. faecium (fold increase in extracellular AK activity) [5, 31]: 0.9
AK-based Prestwick Library Screening Results, S. aureus (fold increase in extracellular AK activity) [6, 31]: 0.8
AK-based Prestwick Library Screening Results, K. pneumoniae (fold increase in extracellular AK activity) [7, 31]: 0.8

O=C1NCC2(CCN(CCc3ccccc3)CC2)O1 [Fenspiride hydrochloride]
fold induction at 50 µM [1, 17]: 1.2
fold induction at 50 µM [2, 18]: 1.6
fold induction at 50 µM [3, 19]: 1.1
fold induction at 50 µM [4, 20]: 1.3
fold induction at 50 µM [5, 21]: 1
fold induction at 50 µM [6, 22]: 1.1
fold induction at 50 µM [7, 23]: 1

COc1cc(N)c(Cl)cc1C(=O)NC1CCN(CCCOc2ccc(F)cc2)CC1OC (centres unmarked) [Cisapride]
fold induction at 50 µM ([1]; planktonic A. baumannii, cutoff for positive-scoring molecules 3-fold increase, read-out: AK-based Prestwick Library Screening Results, A. baumannii (increase in extracellular AK activity)): 1.1
fold induction at 50 µM ([2]; planktonic E. cloacae, cutoff for positive-scoring molecules 3-fold increase, read-out: AK-based Prestwick Library Screening Results, E. cloacae (increase in extracellular AK activity)): 0.9
fold induction at 50 µM ([3]; planktonic P. aeruginosa, cutoff for positive-scoring molecules 3-fold increase, read-out: AK-based Prestwick Library Screening Results, P. aeruginosa (increase in extracellular AK activity)): 0.9
fold induction at 50 µM ([4]; planktonic E. coli, cutoff for positive-scoring molecules 3-fold increase, read-out: AK-based Prestwick Library Screening Results, E. coli (increase in extracellular AK activity)): 0.9
fold induction at 50 µM ([5]; planktonic E. faecium, cutoff for positive-scoring molecules 3-fold increase, read-out: AK-based Prestwick Library Screening Results, E. faecium (increase in extracellular AK activity)): 0.9
fold induction at 50 µM ([6]; planktonic S. aureus, cutoff for positive-scoring molecules 3-fold increase, read-out: AK-based Prestwick Library Screening Results, S. aureus (increase in extracellular AK activity)): 0.6
fold induction at 50 µM ([7]; planktonic K. pneumoniae, cutoff for positive-scoring molecules 3-fold increase, read-out: AK-based Prestwick Library Screening Results, K. pneumoniae (increase in extracellular AK activity)): 0.7

CCCC(C(=O)OCCN(CC)CC)(c1ccccc1)c1ccccc1 [Proadifen hydrochloride]
fold induction at 50 µM [1, 24]: 1.1
fold induction at 50 µM [2, 25]: 1.7
fold induction at 50 µM [3, 26]: 1.1
fold induction at 50 µM [4, 27]: 1.2
fold induction at 50 µM [5, 28]: 1.1
fold induction at 50 µM [6, 29]: 0.8
fold induction at 50 µM [7, 30]: 0.8
